Measurements taken from US9315522B2, “Antibacterial compounds” (JANSSEN SCIENCES IRELAND UC, priority 2012, dated 2016).

Target: T1, S. aureus ATCC 29213 FabI (Staphylococcus aureus, UniProt Q6GI75)
T1 sequence (Q6GI75 1-256): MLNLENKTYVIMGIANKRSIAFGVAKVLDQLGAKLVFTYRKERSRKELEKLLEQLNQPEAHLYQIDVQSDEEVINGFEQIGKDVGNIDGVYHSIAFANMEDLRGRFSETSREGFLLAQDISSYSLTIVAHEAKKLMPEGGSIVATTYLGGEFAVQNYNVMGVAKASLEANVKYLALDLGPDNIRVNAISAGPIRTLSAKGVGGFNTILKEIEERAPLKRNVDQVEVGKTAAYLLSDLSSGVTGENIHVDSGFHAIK
Experiment: Staphylococcus aureus FabI enzyme inhibition assay
Type: biochemical
Conditions: read-out: FabI (300.235) IC50 (converted)
Procedure, shortened: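 S. aureus ATCC 29213 FabI (50 μg/ml) with 250 μM crotonoyl-CoA and 625 μM NADH in 100 mM NaADA pH 6.5, inhibitor 50–0.39 μM, 30 min at room temperature. Stopped by Tris pH 9.0 shift; NADH at 340 nm versus no-compound and no-enzyme controls; IC50 in μg/ml.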

## O=C1CNCc2cc(/C=C/C(=O)N3CC4C=C(c5nccs5)CC4C3)cnc2N1 (stereo not shown) [compound 48]
  IC50: ~663 nM
